What all share (assay type): cell-based
Assay [1] has as its target T1, human muscarinic M4 receptor (Homo sapiens, UniProt P08173).
T1 sequence (P08173 1-479): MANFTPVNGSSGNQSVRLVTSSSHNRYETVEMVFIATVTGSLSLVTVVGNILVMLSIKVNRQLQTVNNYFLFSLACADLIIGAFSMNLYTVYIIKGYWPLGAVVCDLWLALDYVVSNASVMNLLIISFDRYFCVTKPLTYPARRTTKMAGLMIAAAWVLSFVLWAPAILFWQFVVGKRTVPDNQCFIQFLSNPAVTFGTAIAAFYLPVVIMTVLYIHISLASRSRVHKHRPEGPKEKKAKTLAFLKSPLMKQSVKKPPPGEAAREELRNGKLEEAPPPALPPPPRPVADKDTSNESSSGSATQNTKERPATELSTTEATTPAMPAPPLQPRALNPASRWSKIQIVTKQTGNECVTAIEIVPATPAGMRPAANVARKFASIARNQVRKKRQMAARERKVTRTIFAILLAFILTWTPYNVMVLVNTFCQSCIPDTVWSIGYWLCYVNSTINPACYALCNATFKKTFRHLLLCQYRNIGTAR
Description: Alphascreen Surefire phospho-ERK1/2 functional assay, M4. The following applies: for % Emax cf. ACh, M4: CHO cells stably expressing human M4, Emax relative to ACh; for EC50: pEC50 M4, CHO cells stably expressing human M4, phospho-ERK1/2. An outline of the steps:
(§1)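 CHO cells stably expressing human M1, M2, M3 or M4 receptor, serum-starved overnight, then stimulated with agonist for 5 min at 37 °C. Cells lysed for 15 min and phospho-ERK1/2 detected in the lysate by AlphaScreen SureFire.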
On the technique in general: Bead proximity is the source of the signal in Alpha formats.

The target of assay [2] is T2, human muscarinic M1 receptor (Homo sapiens, UniProt P11229).
T2 sequence (P11229 1-460): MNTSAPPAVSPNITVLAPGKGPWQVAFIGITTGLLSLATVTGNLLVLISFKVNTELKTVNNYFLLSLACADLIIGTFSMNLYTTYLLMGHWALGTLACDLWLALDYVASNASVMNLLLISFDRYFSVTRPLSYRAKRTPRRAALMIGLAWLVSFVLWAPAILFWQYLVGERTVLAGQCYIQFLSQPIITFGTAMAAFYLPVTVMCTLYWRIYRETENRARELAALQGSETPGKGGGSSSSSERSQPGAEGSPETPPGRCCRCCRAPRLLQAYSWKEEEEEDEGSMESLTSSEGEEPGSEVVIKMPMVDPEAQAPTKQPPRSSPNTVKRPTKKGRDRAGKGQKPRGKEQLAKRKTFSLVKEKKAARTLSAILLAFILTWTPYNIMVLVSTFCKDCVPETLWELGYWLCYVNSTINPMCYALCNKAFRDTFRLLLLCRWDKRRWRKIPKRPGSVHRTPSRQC
Nature of the assay: Alphascreen Surefire phospho-ERK1/2 functional assay, M1. Conditions: for % Emax cf. ACh, M1: CHO cells stably expressing human M1, Emax relative to ACh; for EC50: pEC50 M1, CHO cells stably expressing human M1, phospho-ERK1/2. Put shortly:
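Stably transfected CHO cells, serum-starved overnight, then exposed to agonist for 5 min at 37 °C. Cells lysed and phospho-ERK1/2 measured by AlphaScreen SureFire.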

The target in assay [3] is T3, human muscarinic M2 receptor (Homo sapiens, UniProt P08172).
T3 sequence (P08172 1-466): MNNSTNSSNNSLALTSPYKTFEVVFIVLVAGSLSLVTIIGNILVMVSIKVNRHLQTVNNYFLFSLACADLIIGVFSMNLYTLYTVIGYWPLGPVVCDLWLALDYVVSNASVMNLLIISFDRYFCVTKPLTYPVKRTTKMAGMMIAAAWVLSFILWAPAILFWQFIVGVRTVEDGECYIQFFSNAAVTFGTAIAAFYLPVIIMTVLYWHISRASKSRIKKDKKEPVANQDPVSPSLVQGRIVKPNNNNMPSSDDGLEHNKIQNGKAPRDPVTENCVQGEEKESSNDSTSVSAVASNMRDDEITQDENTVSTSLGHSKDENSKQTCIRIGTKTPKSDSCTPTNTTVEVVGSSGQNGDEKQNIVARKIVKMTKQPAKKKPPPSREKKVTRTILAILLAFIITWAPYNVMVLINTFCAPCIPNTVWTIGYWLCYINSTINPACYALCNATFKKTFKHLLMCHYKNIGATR
Nature of the assay: Alphascreen Surefire phospho-ERK1/2 functional assay, M2. The following applies: for % Emax cf. ACh, M2: CHO cells stably expressing human M2; for EC50: pEC50 M2, CHO cells stably expressing human M2, phospho-ERK1/2. Put shortly: as §1

The target of assay [4] is T4, human muscarinic M3 receptor (Homo sapiens, UniProt P20309).
T4 construct: expressed in transfected cells
T4 sequence (P20309 whole entry): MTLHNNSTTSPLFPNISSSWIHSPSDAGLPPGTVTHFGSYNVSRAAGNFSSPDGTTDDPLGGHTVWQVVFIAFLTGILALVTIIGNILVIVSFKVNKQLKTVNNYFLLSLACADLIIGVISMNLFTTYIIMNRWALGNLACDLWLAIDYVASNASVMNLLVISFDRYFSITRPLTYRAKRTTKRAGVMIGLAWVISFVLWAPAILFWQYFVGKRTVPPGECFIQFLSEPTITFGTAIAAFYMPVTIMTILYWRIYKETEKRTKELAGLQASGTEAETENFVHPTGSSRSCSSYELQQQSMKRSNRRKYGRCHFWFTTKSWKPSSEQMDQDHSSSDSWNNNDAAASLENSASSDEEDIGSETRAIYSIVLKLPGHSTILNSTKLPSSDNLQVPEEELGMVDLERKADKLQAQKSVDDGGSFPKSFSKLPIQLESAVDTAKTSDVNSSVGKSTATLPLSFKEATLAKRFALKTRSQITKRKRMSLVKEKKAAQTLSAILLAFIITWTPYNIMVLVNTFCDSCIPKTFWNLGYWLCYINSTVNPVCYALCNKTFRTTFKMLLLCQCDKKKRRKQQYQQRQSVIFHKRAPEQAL
Description: Alphascreen Surefire phospho-ERK1/2 functional assay, M3. The following applies: for % Emax cf. ACh, M3: CHO cells stably expressing human M3; for EC50: pEC50 M3, CHO cells stably expressing human M3, phospho-ERK1/2. Put shortly: as §1

Setting [5] is: Emax relative to ACh, listed as 6-5 Isomer 2.
Where [6] appears, read: Emax relative to ACh, listed as 6-7 Isomer 2.

Bounds are passed on as bounds.

Here are results for four molecules from patent publication US10787447B2, “Pharmaceutical compounds” (Heptares Therapeutics Limited, priority 2018, dated 2020).

In the case of `CCOC(=O)N1C2COCC1CC(N1CCC(N(Cc3ccccc3)C(C)=O)CC1)C2` (single isomer, unassigned) [Example 6-5 Isomer 2, Ethyl 7-{4-[acetyl(benzyl)amino]piperidin-1-yl}-3-oxa-9-azabicyclo[3.3.1]nonane-9-carboxylate], the “% Emax cf. ACh, M4” value in assay [1] (listed as 6-5 Isomer 2) was determined as 73%. Besides, the 50% effective concentration (EC50) in assay [1] was 145 nM; in assay [2], 15.8 nM; in assay [3], 2340 nM; in assay [4], 2820 nM. Further, the “% Emax cf. ACh, M1” value in assay [2] is reported as 91%. Further, in assay [3] (setting [5]), the “% Emax cf. ACh, M2” value worked out at 68%. Further, the “% Emax cf. ACh, M3” value in assay [4] (setting [5]) was found to be 83%.
Regarding `CCOC(=O)N1C2COCC1CC(N1CCC(n3cc(Cl)cn3)CC1)C2` (single isomer, unassigned) [Example 1-2 Isomer 1, Ethyl 7-[4-(4-chloro-1H-pyrazol-1-yl)piperidin-1-yl]-3-oxa-9-azabicyclo[3.3.1]nonane-9-carboxylate], the “% Emax cf. ACh, M4” value in assay [1] (listed as 1-2 Isomer 1) amounted to 78%. Besides, the EC50 in assay [1] was 2.88 nM; in assay [2], 15.1 nM; in assay [3], 87.1 nM. Further, the “% Emax cf. ACh, M1” value in assay [2] (listed as 1-2 Isomer 1) is reported as 96%. Also, the “% Emax cf. ACh, M2” value in assay [3] (Emax relative to ACh, listed as 1-2 Isomer 1) is on record as 69%. The “% Emax cf. ACh, M3” value in assay [4] (Emax relative to ACh) is on record as 2%.
For `CCOC(=O)N1C2COCC1CC(N1CCC3(CC1)CNC(=O)C3)C2` (single isomer, unassigned) [Example 5-2 Isomer 2, Ethyl 7-(3-oxo-2,8-diazaspiro[4.5]dec-8-yl)-3-oxa-9-azabicyclo[3.3.1]nonane-9-carboxylate], the “% Emax cf. ACh, M4” value in assay [1] was 18%. Also, the EC50 in assay [1] is more than 20000 nM; in assay [2] it was 43.7 nM; in assay [3], more than 20000 nM; in assay [4], more than 20000 nM. In addition, the “% Emax cf. ACh, M1” value in assay [2] (listed as 5-2 Isomer 2) turned out to be 61%. Also, the maximal response (Emax) was found to be 8% in assay [3] (CHO, read-out: % Emax cf. ACh, M2, CHO cells stably expressing human M2, Emax relative to ACh) and 5% in assay [4] (CHO, read-out: % Emax cf. ACh, M3, CHO cells stably expressing human M3, Emax relative to ACh).
As to `CCOC(=O)N1C2COCC1CC(N1CCC(N3CCCCCC3=O)CC1)C2` (single isomer, unassigned) [Example 6-7 Isomer 2, Ethyl 7-[4-(2-oxoazepan-1-yl)piperidin-1-yl]-3-oxa-9-azabicyclo[3.3.1]nonane-9-carboxylate], the “% Emax cf. ACh, M4” value in assay [1] (listed as 6-7 Isomer 2) turned out to be 52%. The EC50 was 174 nM in assay [1], 2190 nM in assay [2] and more than 20000 nM in assay [3]. Also, in assay [2] (listed as 6-7 Isomer 2), the “% Emax cf. ACh, M1” value is 41%. In addition, the “% Emax cf. ACh, M2” value in assay [3] (setting [6]) was determined as 5%. Moreover, the “% Emax cf. ACh, M3” value in assay [4] (setting [6]) is on record as 2%.

The term EC50 denotes the concentration needed to bring the measured effect to its halfway point. Low readings indicate a more potent agent, high ones a less potent agent. As usually defined, the Emax is the greatest response seen or fitted, relative to the assay's reference.
